Patent US11434258B2, “Compounds (immunorhelins)” (ISR IMMUNE SYSTEM REGULATION HOLDING AB (PUBL), priority 2017, dated 2022)
Non-standard residues stand in square brackets, D forms with d. Residues, ends and D or L forms follow the SMILES beside them. *: point of attachment. dHis(τ-Bn) = N[C@H](Cc1cn(Cc2ccccc2)cn1)C(=O)O; d2Nal = N[C@H](Cc1ccc2ccccc2c1)C(=O)O; pGlu = O=C1CC[C@@H](C(=O)O)N1; tBu = CC(C)(C)*

Key:
[1] = Solubility in PBS (LC/UV AUC trend); details: PBS pH 7.4, 0.2 mg/ml; rating 1 (good) to 5 (poor)
GnRHR = biological target: T1, GnRHR (Homo sapiens, UniProt P30968); assay: Calcium assay in CHO-K1 cells (Genscript), FLIPR; format: cell-based; details: CHO-K1/GnRHR/Ga15 cells, relative to agonist control, read-out: GNRHR Stimulation at 1 μM
T1 construct: host or cells: CHO-K1 (CHO-K1/GnRHR/Ga15)
T1 sequence (P30968 1-328): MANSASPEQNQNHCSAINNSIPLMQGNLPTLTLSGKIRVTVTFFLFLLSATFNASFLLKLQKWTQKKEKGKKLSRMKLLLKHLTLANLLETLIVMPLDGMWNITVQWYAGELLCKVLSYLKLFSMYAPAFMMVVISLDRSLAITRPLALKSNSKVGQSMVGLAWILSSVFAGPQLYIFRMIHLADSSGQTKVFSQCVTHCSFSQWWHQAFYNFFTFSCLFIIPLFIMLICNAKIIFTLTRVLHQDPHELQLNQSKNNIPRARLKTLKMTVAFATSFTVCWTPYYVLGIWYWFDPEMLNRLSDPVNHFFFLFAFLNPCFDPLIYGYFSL
Method: Test article sample solutions were dissolved in HBSS buffer (with 20 mM HEPES buffer, pH 7.4) to form the 5× working solution. FLIPR® Calcium 4 assay kit from Molecular devices (R8141) was used as required. In brief, CHO-K1 cells expressing GnRHR (CHO-K1/GnRHR/Ga15, Genscript accession NM_000406) were respectively cultured in the 10-cm dishes and maintained at 37° C./5% CO2. CHO-K1 cells expressing GNRHR were respectively seeded in a 384-well black-wall, clear-bottom plate at a density of 15,000 cells per well in 20 μl of growth medium about 18 hours prior to the day of experiment and maintained at 37° C./5% CO2. Then, 20 μl of dye loading solution was added into the wells and the plates were subsequently placed into a 37° C. incubator for 60 minutes, followed by a 15 minutes' incubation at room temperature. At last, 10 μl of compounds or control agonist were added into respective wells of the assay plate during reading in FLIPR. The plate containing 5× compound and control agonist solution was placed in FLIPR. Solutions were added into the cell plate automatically at the 20 seconds and the fluorescence signal was monitored for an additional 100 seconds (21 sec to 120 sec.). Data were recorded by ScreenWorks (version 3.1) as FMD files with FLIPR and stored on the GenScript computer network for off-line analysis. Data acquisition and analyses was performed using ScreenWorks (version 3.1) program and exported to Excel. The average value of the first 20 seconds' reading was calculated as the baseline and the relative fluorescent units (ΔRFU) intensity values were calculated by subtracting the average value of baseline from the maximum fluorescent units (21 s to 120 s).
The % Stimulation was calculated with the following equation: % Stimulation=(ΔRFUCompound−ΔRFUBackground)/(ΔRFUAgonist control−ΔRFUBackground)×100
Dose response curves were fitted with four-parameter-logistic-equation by the software GraphPad Prism 6.
Equation: four parameter logistic equation. Y=Bottom+(Top-Bottom)/(1+10^((Log EC50−X)×Hillslope))
X is the logarithm of concentration. Y is the response.

[2] = Stability in aqueous media (PBS pH 7.4); format: physicochemical; design: unit not given here; details: phosphate buffer solution (PBS); PBS pH 7.4, 37° C., samples at T=0, 4, 24, 96 h; read-out: Stability grading (t1/2)
Text: LC/MS data was collected for compound identity.

| SMILES | Solubility grading [1] | activation at 1 µM (GnRHR) [%] | half-life at 0.2 mg/ml [2] |
| --- | --- | --- | --- |
| CCNC(=O)[C@@H]1CCCN1C(=O)[C@H](Cc1ccc(O)cc1)NC(=O)[C@H](CC(C)C)NC(=O)[C@@H](COC(C)(C)C)NC(=O)[C@H](Cc1ccc(O)cc1)NC(=O)[C@H](CO)NC(=O)[C@H](Cc1c[nH]c2ccccc12)NC(=O)[C@H](Cc1c[nH]cn1)NC(=O)[C@@H]1CCC(=O)N1 [Compound 9, pGlu-His-Trp-Ser-Tyr-D-Ser(tBu)-Leu-Tyr-Pro-NHEt] ([pGlu]HWSY[dS](tBu)LYP-NHEt) | 1 | 78 | > 96 |
| CCNC(=O)[C@@H]1CCCN1C(=O)[C@H](CCCNC(=N)N)NC(=O)[C@H](Cc1c[nH]c2ccccc12)NC(=O)[C@@H](COC(C)(C)C)NC(=O)[C@H](Cc1c[nH]cn1)NC(=O)[C@H](CO)NC(=O)[C@H](Cc1c[nH]c2ccccc12)NC(=O)[C@H](Cc1c[nH]cn1)NC(=O)[C@@H]1CCC(=O)N1 [Compound 10, pGlu-His-Trp-Ser-His-D-Ser(tBu)-Trp-Arg-Pro-NHEt] ([pGlu]HWSH[dS](tBu)WRP-NHEt) | 1 | 81 | > 96 |
| CCNC(=O)[C@@H]1CCCN1C(=O)[C@H](Cc1ccc(O)cc1)NC(=O)[C@H](CC(C)C)NC(=O)[C@@H](COC(C)(C)C)NC(=O)[C@H](Cc1c[nH]cn1)NC(=O)[C@H](CO)NC(=O)[C@H](Cc1c[nH]c2ccccc12)NC(=O)[C@H](Cc1c[nH]cn1)NC(=O)[C@@H]1CCC(=O)N1 [Compound 11, pGlu-His-Trp-Ser-His-D-Ser(tBu)-Leu-Tyr-Pro-NHEt] ([pGlu]HWSH[dS](tBu)LYP-NHEt) | 1 | 76 | > 96 |
| CC(C)C[C@H](NC(=O)[C@@H](Cc1ccc2ccccc2c1)NC(=O)[C@H](Cc1c[nH]cn1)NC(=O)[C@H](CO)NC(=O)[C@H](Cc1c[nH]c2ccccc12)NC(=O)[C@H](Cc1c[nH]cn1)NC(=O)[C@@H]1CCC(=O)N1)C(=O)N[C@@H](CCCNC(=N)N)C(=O)N1CCC[C@H]1C(=O)NCC(N)=O [Compound 23, pGlu-His-Trp-Ser-His-D-Nal-Leu-Arg-Pro-Gly-amide] ([pGlu]HWSH[d2Nal]LRPG-NH2) | 1 | 106 | > 96 |
| N=C(N)NCCC[C@H](NC(=O)[C@H](Cc1c[nH]c2ccccc12)NC(=O)[C@@H](Cc1ccc2ccccc2c1)NC(=O)[C@H](Cc1ccc(O)cc1)NC(=O)[C@H](CO)NC(=O)[C@H](Cc1c[nH]c2ccccc12)NC(=O)[C@H](Cc1c[nH]cn1)NC(=O)[C@@H]1CCC(=O)N1)C(=O)N1CCC[C@H]1C(=O)NCC(N)=O [Compound 24, pGlu-His-Trp-Ser-Tyr-D-Nal-Trp-Arg-Pro-Gly-amide] ([pGlu]HWSY[d2Nal]WRPG-NH2) | 5 | 87 | < 96 |
| N=C(N)NCCC[C@H](NC(=O)[C@H](Cc1c[nH]c2ccccc12)NC(=O)[C@@H](Cc1ccc2ccccc2c1)NC(=O)[C@H](Cc1c[nH]cn1)NC(=O)[C@H](CO)NC(=O)[C@H](Cc1c[nH]c2ccccc12)NC(=O)[C@H](Cc1c[nH]cn1)NC(=O)[C@@H]1CCC(=O)N1)C(=O)N1CCC[C@H]1C(=O)NCC(N)=O [Compound 27, pGlu-His-Trp-Ser-His-D-Nal-Trp-Arg-Pro-Gly-amide] ([pGlu]HWSH[d2Nal]WRPG-NH2) | 1 | 108 | > 96 |
| NC(=O)CNC(=O)[C@@H]1CCCN1C(=O)[C@H](Cc1ccc(O)cc1)NC(=O)[C@H](Cc1c[nH]c2ccccc12)NC(=O)[C@@H](Cc1ccc2ccccc2c1)NC(=O)[C@H](Cc1ccc(O)cc1)NC(=O)[C@H](CO)NC(=O)[C@H](Cc1c[nH]c2ccccc12)NC(=O)[C@H](Cc1c[nH]cn1)NC(=O)[C@@H]1CCC(=O)N1 [Compound 30, pGlu-His-Trp-Ser-Tyr-D-Nal-Trp-Tyr-Pro-Gly-amide] ([pGlu]HWSY[d2Nal]WYPG-NH2) | 1 | 12 | < 96 |
| CCNC(=O)[C@@H]1CCCN1C(=O)[C@H](CCCNC(=N)N)NC(=O)[C@H](CC(C)C)NC(=O)[C@@H](CC(C)C)NC(=O)[C@H](Cc1c[nH]cn1)NC(=O)[C@H](CO)NC(=O)[C@H](Cc1c[nH]c2ccccc12)NC(=O)[C@H](Cc1c[nH]cn1)NC(=O)[C@@H]1CCC(=O)N1 [Compound 42, pGlu-His-Trp-Ser-His-D-Leu-Leu-Arg-Pro-NHEt] ([pGlu]HWSH[dL]LRP-NHEt) | 1 | 102 | > 96 |
| CCNC(=O)[C@@H]1CCCN1C(=O)[C@H](CCCNC(=N)N)NC(=O)[C@H](Cc1c[nH]c2ccccc12)NC(=O)[C@@H](CC(C)C)NC(=O)[C@H](Cc1c[nH]cn1)NC(=O)[C@H](CO)NC(=O)[C@H](Cc1c[nH]c2ccccc12)NC(=O)[C@H](Cc1c[nH]cn1)NC(=O)[C@@H]1CCC(=O)N1 [Compound 47, pGlu-His-Trp-Ser-His-D-Leu-Trp-Arg-Pro-NHEt] ([pGlu]HWSH[dL]WRP-NHEt) | 1 | 119 | > 96 |
| CCNC(=O)[C@@H]1CCCN1C(=O)[C@H](Cc1ccc(O)cc1)NC(=O)[C@H](Cc1c[nH]c2ccccc12)NC(=O)[C@@H](CC(C)C)NC(=O)[C@H](Cc1c[nH]cn1)NC(=O)[C@H](CO)NC(=O)[C@H](Cc1c[nH]c2ccccc12)NC(=O)[C@H](Cc1c[nH]cn1)NC(=O)[C@@H]1CCC(=O)N1 [Compound 50, pGlu-His-Trp-Ser-His-D-Leu-Trp-Tyr-Pro-NHEt] ([pGlu]HWSH[dL]WYP-NHEt) | 1 | 105 | > 96 |
| CCNC(=O)[C@@H]1CCCN1C(=O)[C@H](CCCNC(=N)N)NC(=O)[C@H](CC(C)C)NC(=O)[C@@H](Cc1cn(Cc2ccccc2)cn1)NC(=O)[C@H](Cc1c[nH]cn1)NC(=O)[C@H](CO)NC(=O)[C@H](Cc1c[nH]c2ccccc12)NC(=O)[C@H](Cc1c[nH]cn1)NC(=O)[C@@H]1CCC(=O)N1 [Compound 56, pGlu-His-Trp-Ser-His-D-Bhi-Leu-Arg-Pro-NHEt] ([pGlu]HWSH[dHis(τ-Bn)]LRP-NHEt) | 1 | 96 | > 96 |
| CCNC(=O)[C@@H]1CCCN1C(=O)[C@H](Cc1ccc(O)cc1)NC(=O)[C@H](Cc1c[nH]c2ccccc12)NC(=O)[C@@H](Cc1cn(Cc2ccccc2)cn1)NC(=O)[C@H](Cc1ccc(O)cc1)NC(=O)[C@H](CO)NC(=O)[C@H](Cc1c[nH]c2ccccc12)NC(=O)[C@H](Cc1c[nH]cn1)NC(=O)[C@@H]1CCC(=O)N1 [Compound 62, pGlu-His-Trp-Ser-Tyr-D-Bhi-Trp-Tyr-Pro-NHEt] ([pGlu]HWSY[dHis(τ-Bn)]WYP-NHEt) | 5 | 77 | < 96 |
| CCNC(=O)[C@@H]1CCCN1C(=O)[C@H](Cc1ccc(O)cc1)NC(=O)[C@H](Cc1c[nH]c2ccccc12)NC(=O)[C@@H](Cc1cn(Cc2ccccc2)cn1)NC(=O)[C@H](Cc1c[nH]cn1)NC(=O)[C@H](CO)NC(=O)[C@H](Cc1c[nH]c2ccccc12)NC(=O)[C@H](Cc1c[nH]cn1)NC(=O)[C@@H]1CCC(=O)N1 [Compound 63, pGlu-His-Trp-Ser-His-D-Bhi-Trp-Tyr-Pro-NHEt] ([pGlu]HWSH[dHis(τ-Bn)]WYP-NHEt) | 5 | 77 | < 96 |
